Each structure is given as a SMILES string.

In assay [1] the target is Dual specificity tyrosine-phosphorylation-regulated kinase 1A (Homo sapiens, UniProt Q13627). Briefly: Selectivity interaction (Ambit KINOMEscan and KiNATiv profiling in Jurkat cells) EUB0000090b DYRK1A. The format is cell-based. To be noted: at 1 µM.
The target of assay [2] is T1, Serine/threonine-protein kinase Sgk3 (Homo sapiens) (UniProt Q96BR1).
T1 sequence (whole entry): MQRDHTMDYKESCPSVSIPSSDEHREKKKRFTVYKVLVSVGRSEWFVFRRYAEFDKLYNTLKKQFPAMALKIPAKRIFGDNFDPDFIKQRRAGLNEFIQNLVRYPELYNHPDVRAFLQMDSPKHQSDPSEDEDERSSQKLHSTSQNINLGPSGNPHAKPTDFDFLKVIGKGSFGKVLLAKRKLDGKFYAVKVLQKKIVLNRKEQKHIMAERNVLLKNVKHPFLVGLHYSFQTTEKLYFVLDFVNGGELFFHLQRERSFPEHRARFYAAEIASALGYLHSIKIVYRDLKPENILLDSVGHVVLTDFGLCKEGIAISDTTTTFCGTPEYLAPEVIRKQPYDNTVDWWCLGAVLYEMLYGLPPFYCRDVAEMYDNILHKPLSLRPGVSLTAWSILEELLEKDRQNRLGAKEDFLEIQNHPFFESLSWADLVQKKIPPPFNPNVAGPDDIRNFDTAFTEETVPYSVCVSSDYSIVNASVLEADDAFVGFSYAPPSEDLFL
In words: Selectivity interaction (KinomeScan (DiscoverX)) EUB0000229b SGK3. To be noted: at 10 µM.

Assay [3] concerns the target Dual specificity tyrosine-phosphorylation-regulated kinase 1B (Homo sapiens, UniProt Q9Y463). Briefly: Selectivity interaction (KinomeScan (DiscoverX)) EUB0000655a DYRK1B. The note with it: at 10 µM.
For assay [4], the target named is Serine/threonine-protein kinase Nek7 (Homo sapiens) (UniProt Q8TDX7). Briefly: Selectivity interaction (KinomeScan (DiscoverX)) EUB0001619a NEK7. To be noted: at 1 µM.
The target of assay [5] is Serine/threonine-protein kinase N2 (Homo sapiens, UniProt Q16513). Briefly: Selectivity interaction (Kinase panel (literature)) EUB0001199aCl PKN2. To be noted: at 1 µM.
Assay [6] deals with Interferon-induced, double-stranded RNA-activated protein kinase (Homo sapiens) (UniProt P19525). In words: Selectivity interaction (KinomeScan (DiscoverX)) EUB0000699a EIF2AK2. The note with it: at 10 µM.
Assay [7] addresses T2, MAP/microtubule affinity-regulating kinase 4 (Homo sapiens) (UniProt Q96L34).
T2 sequence (whole entry): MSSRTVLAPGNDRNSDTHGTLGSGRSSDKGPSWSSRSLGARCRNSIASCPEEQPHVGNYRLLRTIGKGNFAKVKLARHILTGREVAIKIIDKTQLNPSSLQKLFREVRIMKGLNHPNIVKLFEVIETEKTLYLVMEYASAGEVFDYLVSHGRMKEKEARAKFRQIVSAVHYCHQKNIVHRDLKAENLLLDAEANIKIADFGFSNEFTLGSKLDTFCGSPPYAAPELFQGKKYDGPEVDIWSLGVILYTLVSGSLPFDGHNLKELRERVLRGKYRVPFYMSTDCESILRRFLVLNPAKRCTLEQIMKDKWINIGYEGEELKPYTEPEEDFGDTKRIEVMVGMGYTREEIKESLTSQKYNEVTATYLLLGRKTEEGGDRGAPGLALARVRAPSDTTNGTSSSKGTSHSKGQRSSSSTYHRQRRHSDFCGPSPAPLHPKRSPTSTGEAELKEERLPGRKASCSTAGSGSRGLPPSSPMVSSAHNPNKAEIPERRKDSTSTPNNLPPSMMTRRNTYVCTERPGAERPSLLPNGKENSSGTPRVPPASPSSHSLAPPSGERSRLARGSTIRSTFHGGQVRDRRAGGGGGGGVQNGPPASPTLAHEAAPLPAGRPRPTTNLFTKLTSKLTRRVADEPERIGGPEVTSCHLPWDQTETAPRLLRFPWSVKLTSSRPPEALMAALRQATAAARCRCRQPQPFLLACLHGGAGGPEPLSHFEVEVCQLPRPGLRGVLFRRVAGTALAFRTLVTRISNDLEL
Briefly: Selectivity interaction (ProQinase) EUB0000171b MARK4.

The target in assay [8] is T3, Testis-specific serine/threonine-protein kinase 1 (Homo sapiens) (UniProt Q9BXA7).
T3 sequence (whole entry): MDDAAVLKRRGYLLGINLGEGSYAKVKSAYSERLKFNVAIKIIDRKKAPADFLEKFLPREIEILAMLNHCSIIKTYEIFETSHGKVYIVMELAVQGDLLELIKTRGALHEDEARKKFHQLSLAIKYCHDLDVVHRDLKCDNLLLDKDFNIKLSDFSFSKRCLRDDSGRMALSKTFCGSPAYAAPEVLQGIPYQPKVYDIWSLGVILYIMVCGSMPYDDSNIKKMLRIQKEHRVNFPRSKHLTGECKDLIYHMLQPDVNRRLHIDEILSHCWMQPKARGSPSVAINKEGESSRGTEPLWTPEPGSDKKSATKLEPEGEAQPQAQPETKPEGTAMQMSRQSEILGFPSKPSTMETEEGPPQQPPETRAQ
Briefly: Selectivity interaction (KinomeScan (DiscoverX)) EUB0000092b TSSK1A. The note with it: at 10 µM.

In assay [9] the target is Ephrin type-A receptor 7 (Homo sapiens) (UniProt Q15375). In words: Selectivity interaction (KinomeScan (DiscoverX)) EUB0000045b EPHA7.
Ephrin type-A receptor 7 (Homo sapiens), sequence (Q15375 28-998 limits assumed): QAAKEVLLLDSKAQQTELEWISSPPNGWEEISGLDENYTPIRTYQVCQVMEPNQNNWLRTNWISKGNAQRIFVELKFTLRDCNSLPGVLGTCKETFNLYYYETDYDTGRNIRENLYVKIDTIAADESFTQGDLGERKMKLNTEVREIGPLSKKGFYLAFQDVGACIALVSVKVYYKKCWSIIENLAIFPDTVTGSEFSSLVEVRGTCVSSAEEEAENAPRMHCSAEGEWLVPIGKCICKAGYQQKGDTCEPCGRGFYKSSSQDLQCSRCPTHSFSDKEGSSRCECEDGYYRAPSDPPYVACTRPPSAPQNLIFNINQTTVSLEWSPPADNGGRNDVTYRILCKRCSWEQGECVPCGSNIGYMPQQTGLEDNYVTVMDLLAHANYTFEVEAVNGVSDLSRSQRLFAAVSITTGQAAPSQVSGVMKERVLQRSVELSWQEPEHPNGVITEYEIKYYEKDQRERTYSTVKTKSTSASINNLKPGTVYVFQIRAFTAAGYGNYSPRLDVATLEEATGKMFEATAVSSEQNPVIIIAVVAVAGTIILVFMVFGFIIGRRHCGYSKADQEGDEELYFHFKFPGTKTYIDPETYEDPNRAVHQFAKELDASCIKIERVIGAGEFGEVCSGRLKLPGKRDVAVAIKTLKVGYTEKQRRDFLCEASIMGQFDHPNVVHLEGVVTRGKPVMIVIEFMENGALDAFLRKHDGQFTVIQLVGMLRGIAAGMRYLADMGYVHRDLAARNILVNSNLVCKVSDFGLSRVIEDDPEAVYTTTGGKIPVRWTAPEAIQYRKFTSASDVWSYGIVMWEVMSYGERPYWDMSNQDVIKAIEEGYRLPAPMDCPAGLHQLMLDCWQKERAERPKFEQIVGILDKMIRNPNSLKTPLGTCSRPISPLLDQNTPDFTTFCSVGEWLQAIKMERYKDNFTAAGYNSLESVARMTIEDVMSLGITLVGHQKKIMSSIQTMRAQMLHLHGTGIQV

Dual specificity tyrosine-phosphorylation-regulated kinase 1B, sequence (Q9Y463 whole entry, looked up): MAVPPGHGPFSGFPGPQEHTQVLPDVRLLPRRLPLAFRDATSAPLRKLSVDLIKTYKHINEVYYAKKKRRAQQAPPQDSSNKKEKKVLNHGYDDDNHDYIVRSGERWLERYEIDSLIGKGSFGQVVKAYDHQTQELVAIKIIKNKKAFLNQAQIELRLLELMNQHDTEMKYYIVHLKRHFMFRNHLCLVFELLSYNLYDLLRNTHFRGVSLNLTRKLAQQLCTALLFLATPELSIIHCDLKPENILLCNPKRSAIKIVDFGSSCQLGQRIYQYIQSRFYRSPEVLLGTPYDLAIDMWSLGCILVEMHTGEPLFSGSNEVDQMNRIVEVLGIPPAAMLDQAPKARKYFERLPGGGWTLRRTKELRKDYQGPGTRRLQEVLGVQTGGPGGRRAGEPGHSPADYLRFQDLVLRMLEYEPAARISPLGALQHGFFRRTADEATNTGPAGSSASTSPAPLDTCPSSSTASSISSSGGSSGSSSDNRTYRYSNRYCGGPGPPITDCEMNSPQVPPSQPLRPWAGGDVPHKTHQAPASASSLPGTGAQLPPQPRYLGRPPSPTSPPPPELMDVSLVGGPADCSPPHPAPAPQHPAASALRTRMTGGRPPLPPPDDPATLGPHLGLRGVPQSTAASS
Interferon-induced, double-stranded RNA-activated protein kinase (Homo sapiens), sequence (P19525 whole entry): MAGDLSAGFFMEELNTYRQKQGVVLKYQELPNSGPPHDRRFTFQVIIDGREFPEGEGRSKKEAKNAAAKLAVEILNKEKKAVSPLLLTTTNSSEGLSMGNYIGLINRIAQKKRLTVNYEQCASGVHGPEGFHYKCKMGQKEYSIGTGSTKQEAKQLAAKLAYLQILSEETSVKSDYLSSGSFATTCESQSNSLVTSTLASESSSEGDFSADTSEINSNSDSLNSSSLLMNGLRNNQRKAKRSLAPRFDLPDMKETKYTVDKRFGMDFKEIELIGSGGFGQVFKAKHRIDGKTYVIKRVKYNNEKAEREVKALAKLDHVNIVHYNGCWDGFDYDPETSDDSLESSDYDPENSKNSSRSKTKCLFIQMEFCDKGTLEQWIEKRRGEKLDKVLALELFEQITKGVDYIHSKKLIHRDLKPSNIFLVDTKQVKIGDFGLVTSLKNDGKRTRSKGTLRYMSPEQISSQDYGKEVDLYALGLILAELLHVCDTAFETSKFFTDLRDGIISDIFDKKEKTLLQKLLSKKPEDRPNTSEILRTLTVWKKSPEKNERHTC
Serine/threonine-protein kinase N2, sequence (Q16513 whole entry, looked up): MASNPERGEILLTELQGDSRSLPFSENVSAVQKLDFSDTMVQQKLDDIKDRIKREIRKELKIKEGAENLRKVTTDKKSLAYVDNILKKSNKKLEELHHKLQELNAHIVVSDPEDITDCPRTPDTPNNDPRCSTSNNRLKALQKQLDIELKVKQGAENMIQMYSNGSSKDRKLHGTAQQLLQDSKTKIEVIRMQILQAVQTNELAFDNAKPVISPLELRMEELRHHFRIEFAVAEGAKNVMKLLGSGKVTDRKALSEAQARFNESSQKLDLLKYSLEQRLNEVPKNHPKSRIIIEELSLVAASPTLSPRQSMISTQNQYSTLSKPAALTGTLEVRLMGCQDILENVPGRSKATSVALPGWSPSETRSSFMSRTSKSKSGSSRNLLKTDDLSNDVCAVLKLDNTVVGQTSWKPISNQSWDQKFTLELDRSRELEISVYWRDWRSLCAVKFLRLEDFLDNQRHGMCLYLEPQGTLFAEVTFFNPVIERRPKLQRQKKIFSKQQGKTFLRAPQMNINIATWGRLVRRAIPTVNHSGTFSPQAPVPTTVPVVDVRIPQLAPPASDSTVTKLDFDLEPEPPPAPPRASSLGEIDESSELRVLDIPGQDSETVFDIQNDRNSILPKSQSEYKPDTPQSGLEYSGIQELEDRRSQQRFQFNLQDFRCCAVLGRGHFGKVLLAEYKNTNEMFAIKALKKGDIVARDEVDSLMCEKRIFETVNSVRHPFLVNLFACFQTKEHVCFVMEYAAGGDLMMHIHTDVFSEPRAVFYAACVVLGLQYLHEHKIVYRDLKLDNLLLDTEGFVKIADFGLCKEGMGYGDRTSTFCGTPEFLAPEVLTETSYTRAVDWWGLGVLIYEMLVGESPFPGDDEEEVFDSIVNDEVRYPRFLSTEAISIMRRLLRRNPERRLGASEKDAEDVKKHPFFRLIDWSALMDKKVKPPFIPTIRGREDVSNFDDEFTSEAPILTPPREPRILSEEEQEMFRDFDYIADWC
Serine/threonine-protein kinase Nek7 (Homo sapiens), sequence (Q8TDX7 whole entry, looked up): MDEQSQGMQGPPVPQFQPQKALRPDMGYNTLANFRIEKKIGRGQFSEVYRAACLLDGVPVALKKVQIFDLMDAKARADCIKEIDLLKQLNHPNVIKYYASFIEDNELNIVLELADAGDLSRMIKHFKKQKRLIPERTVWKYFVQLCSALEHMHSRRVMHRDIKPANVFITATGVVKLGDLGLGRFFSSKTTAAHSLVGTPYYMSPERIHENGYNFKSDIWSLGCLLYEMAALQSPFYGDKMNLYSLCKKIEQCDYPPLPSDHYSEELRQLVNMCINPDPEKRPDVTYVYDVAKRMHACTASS

Consider `CN(C)C/C=C/C(=O)Nc1ccc(C(=O)N2CCCC(Nc3ncc(Cl)c(-c4c[nH]c5ccccc45)n3)C2)cc1` (stereo unspecified), for which the % of control in assay [1] is 30%. As for `COc1cc(N(C)c2ccnc3ccc(C(F)(F)F)cc23)cc(OC)c1OC`, the % binding in [2] is 79%. Consider `CN(C)CCOc1ccc(-c2nc(-c3ccncc3)c(-c3ccc4c(c3)CC/C4=N\O)[nH]2)cc1`, for which, in assay [3], the % of control was found to be 100%. In assay [4], `N#Cc1cccc(-c2c[nH]c3ncnc(N4CCOCC4)c23)c1` returned a % of control of 100%. Compound `CN1Cc2nccc(-c3cn(C)nc3-c3ccc(F)cc3)c2C1=O` registered a % of inhibition in assay [5] of 2%. The compound `CCN(CC)CCCCNc1ncc2cc(-c3cc(OC)cc(OC)c3)c(NC(=O)NC(C)(C)C)nc2n1` came in with a % of control in assay [6] of 24%. `C=CC(=O)Nc1cccc(C(=O)Nc2ccc(Nc3cc(-c4[nH]c(SC)nc4C)ccn3)cc2)c1`: the % of control in assay [7] (at 1 µM) was 92%; in assay [7] (at 5 µM), 99%. The compound `CCC(=O)N1CCN(c2ccc(-n3c(=O)ccc4cnc5ccc(-c6cnc7ccccc7c6)cc5c43)cc2C(F)(F)F)CC1` returned a % of control in [8] of 100%. As for `C=CC(=O)Nc1cc(-n2c(=O)ccc3cnc4ccc(-c5ccc(NS(C)(=O)=O)cc5)cc4c32)ccc1C`, the results for the % of control in assay [9] (at 1 µM) and in assay [9] (at 10 µM) were 100% and 85%, respectively.

Values taken from ChEMBL document CHEMBL5465560, “Selectivity Literature for EUbOPEN Chemogenomic Library” (2024).
